According to the supplement of paper PMC11208160:

Experiment: recombinant barcode read abundance after kanamycin selection (control-corrected) (log10(CPM+1)); higher = more efficient recombination; sequences stand for … in AGTGCAGAGAAAATCGGCCAGTTTTCTCTGCCTGCAGTCCGCATGCCGT…AGATTTATGCAGCGGACTGCCTTTCTCCCAAAGTGATAAACCGGACAGTATCATGGACCGGTTTTCCCGGTAATCCGTATTTGCAAGGTTGGTTTCACT; site = the 11-nt target
Procedure, shortened: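 Values are log10(CPM+1) from a pooled E. coli screen of targets paired with IS621 bridge RNA target-binding loops. Recombination efficiency here means counts per million of recombinant-junction barcodes, averaged and control-corrected. Plates were chloramphenicol/ampicillin LB agar for the control and chloramphenicol/ampicillin/kanamycin with 0.1 mM IPTG, two replicates each.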
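Further: IS621 recombinase and bridge RNA in Escherichia coli cells.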

| Sequence | recombinant barcode read abundance (log10) |
| --- | --- |
| GCGTTGCCTTGGGTTCTAACCTGTTGCCT (site GCGTTGCCTAG) | 0.213 |
| GCGTTGCCTTGGGTTCTAACCTGTTGCCT (site GGGTTGCCTAG) | 0.0557 |
| GCGTTGCCTTGGGTTCTAACCTGTTGCCT (site GTGTTGCCTAG) | 0.0893 |
| GCTAGTCCTTGGGTTCTAACCTGTTGCTG (site GCTAGTCCTAC) | 0.537 |
| GCTAGTCCTTGGGTTCTAACCTGTTGCTG (site GCTAGTCCTCA) | 0.83 |
| GCTCAGGCTTGGGTTCTAACCTGTTGCCT (site GCTCAGACTAG) | 0.142 |
| GCTCAGGCTTGGGTTCTAACCTGTTGCCT (site GCTCAGCCTAG) | 0.114 |
| GCTCAGGCTTGGGTTCTAACCTGTTGCCT (site GCTCAGGCTAG) | 0.216 |
| GCTCAGGCTTGGGTTCTAACCTGTTGCCT (site GCTCAGTCTAG) | 0.202 |
| GCTCGTCCTTGGGTTCTAACCTGTTGCAT (site GCTCGTCCTAT) | 1.03 |
| GCTCGTCCTTGGGTTCTAACCTGTTGCAT (site GCTGGACCTAT) | 0.0399 |
| GCTCTCCCTTGGGTTCTAACCTGTTGCCT (site GCACTCCCTAG) | 0.0891 |
| GCTCTCCCTTGGGTTCTAACCTGTTGCCT (site GCCCTCCCTAG) | 0.388 |
| GCTCTCCCTTGGGTTCTAACCTGTTGCCT (site GCGCTCCCTAG) | 0.253 |
| GCTCTCCCTTGGGTTCTAACCTGTTGCCT (site GCTCTCCCTAG) | 0.305 |
| GCTGGACCTTGGGTTCTAACCTGTTGCCT (site ACTGGACCTAA) | 0.179 |
| GCTGGACCTTGGGTTCTAACCTGTTGCCT (site GCTGGACCTAG) | 2.15 |
| GCTTCACCTTGGGTTCTAACCTGTTGCCT (site GCTTCACCTAG) | 0.853 |
| GCTTCACCTTGGGTTCTAACCTGTTGCCT (site GCTTTACCTAA) | 0.103 |
| GCTTGGACTTGGGTTCTAACCTGTTGCAT (site GCTTGGACTAT) | 1.29 |

| Sequence | recombinant barcode read abundance (log10) |
| --- | --- |
| GCTTGGACTTGGGTTCTAACCTGTTGCAT (site GTTTGGACTCT) | 0.0332 |
| GCTTTACCTTGGGTTCTAACCTGTTGCTT (site GCTTCACCTAG) | 0.132 |
| GCTTTACCTTGGGTTCTAACCTGTTGCTT (site GCTTTACCTAA) | 0.368 |
| GCTTTGACTTGGGTTCTAACCTGTTGCCT (site GCTTGGACTAG) | 0.0213 |
| GCTTTGACTTGGGTTCTAACCTGTTGCCT (site GCTTTGACTAG) | 0.788 |
| GGAAAGACTTGGGTTCTAACCTGTTGCAC (site GGAAAGACTGT) | 2.02 |
| GGAAAGACTTGGGTTCTAACCTGTTGCAC (site TACCGCCCTAC) | 0.128 |
| GGAACCTCTTGGGTTCTAACCTGTTGCTT (site GGAACCTCTAA) | 0.697 |
| GGAACCTCTTGGGTTCTAACCTGTTGCTT (site GGAACGTCTAA) | 0.0112 |
| GGAAGACCTTGGGTTCTAACCTGTTGCTA (site GGAAGACCTTA) | 0.956 |
| GGAAGACCTTGGGTTCTAACCTGTTGCTA (site GGAGGACCTAA) | 0.246 |
| GGAATCCCTTGGGTTCTAACCTGTTGCCT (site GGAATACCTAG) | 0.0974 |
| GGAATCCCTTGGGTTCTAACCTGTTGCCT (site GGAATCCCTAG) | 1.64 |
| GGAATCCCTTGGGTTCTAACCTGTTGCCT (site GGAATGCCTAG) | 0.463 |
| GGAATCCCTTGGGTTCTAACCTGTTGCCT (site GGAATTCCTAG) | 0.0836 |
| GGACAGTCTTGGGTTCTAACCTGTTGCGT (site CCGGTCCCTCT) | 0.485 |
| GGACAGTCTTGGGTTCTAACCTGTTGCGT (site GGACAGTCTAC) | 2.56 |
| GGACCTCCTTGGGTTCTAACCTGTTGCCT (site GGACCTCCTAA) | 0.336 |
| GGACCTCCTTGGGTTCTAACCTGTTGCCT (site GGACCTCCTAC) | 0.251 |
| GGACCTCCTTGGGTTCTAACCTGTTGCCT (site GGACCTCCTAG) | 1.32 |

| Sequence | recombinant barcode read abundance (log10) |
| --- | --- |
| GGACCTCCTTGGGTTCTAACCTGTTGCCT (site GGACCTCCTAT) | 0.524 |
| GGACGACCTTGGGTTCTAACCTGTTGCCT (site GGACGACCTAG) | 2.26 |
| GGACGACCTTGGGTTCTAACCTGTTGCCT (site GGACGCCCTAG) | 0.102 |
| GGACGACCTTGGGTTCTAACCTGTTGCCT (site GGACGGCCTAG) | 0.412 |
| GGACGACCTTGGGTTCTAACCTGTTGCCT (site GGACGTCCTAG) | 0.163 |
| GGACGTGCTTGGGTTCTAACCTGTTGCCT (site CTCTCGTCTCC) | 0.0482 |
| GGACGTGCTTGGGTTCTAACCTGTTGCCT (site GGACGTGCTAG) | 1.92 |
| GGACTAACTTGGGTTCTAACCTGTTGCCT (site AGACTAACTAA) | 0.126 |
| GGACTAACTTGGGTTCTAACCTGTTGCCT (site GGACTAACTAG) | 1.95 |
| GGAGAGACTTGGGTTCTAACCTGTTGCAT (site ACGTGTCCTCC) | 0.149 |
| GGAGAGACTTGGGTTCTAACCTGTTGCAT (site GGAGAGACTAT) | 2.79 |
| GGAGATTCTTGGGTTCTAACCTGTTGCCT (site GGAGATTCTAG) | 2.22 |
| GGAGATTCTTGGGTTCTAACCTGTTGCCT (site GGAGTTGCTAG) | 0.0142 |
| GGAGCTCCTTGGGTTCTAACCTGTTGCCA (site CGAGCTCCTGG) | 0.082 |
| GGAGCTCCTTGGGTTCTAACCTGTTGCCA (site GGAGCTCCTTG) | 0.371 |
| GGAGGGACTTGGGTTCTAACCTGTTGCGT (site GGAGGGACTAC) | 2.97 |
| GGAGGGACTTGGGTTCTAACCTGTTGCGT (site GGTCGGACTAC) | 0.0283 |
| GGAGTCACTTGGGTTCTAACCTGTTGCGG (site GGAGTCACTCC) | 2.69 |
| GGAGTCACTTGGGTTCTAACCTGTTGCGG (site TTGACACCTAG) | 0.189 |
